How the values were obtained:
[1] = molecular target: T1, hOT-R (Homo sapiens, UniProt P30559); assay: Inhibition of oxytocin mediated Ca2+-mobilization by FLIPR (HEK cells); assay type: cell-based; settings: fluo-4, OT 40 nM
T1 construct: expressed in transfected cells; host or cells: HEK (Human Embryonic Kidney) cells
T1 sequence (P30559 1-389): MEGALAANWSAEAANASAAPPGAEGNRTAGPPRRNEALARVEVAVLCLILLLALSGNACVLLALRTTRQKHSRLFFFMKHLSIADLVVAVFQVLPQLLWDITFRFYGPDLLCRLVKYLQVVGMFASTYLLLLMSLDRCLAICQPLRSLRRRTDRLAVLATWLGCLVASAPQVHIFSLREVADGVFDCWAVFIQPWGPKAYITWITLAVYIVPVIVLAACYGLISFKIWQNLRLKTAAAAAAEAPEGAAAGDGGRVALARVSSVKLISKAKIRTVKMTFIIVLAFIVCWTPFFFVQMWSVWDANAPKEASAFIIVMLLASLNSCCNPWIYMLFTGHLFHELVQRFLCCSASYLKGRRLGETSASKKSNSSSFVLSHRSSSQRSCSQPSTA
From the text: c) Functional Assay No. 1: Inhibition of Oxytocitn Mediated Ca^2+-Mobilization by FLIPR (Fluorescent Imaging Plate Reader)
FLIPR is a machine for fluorescence imaging using a laser that is capable of illuminating a 96-well plate and a means of simultaneously reading each well thus enabling rapid measurements on a large number of samples.
This assay intends to show the inhibition of the OT/OT-R mediated calcium mobilisation—being necessary to cause uterine contractions—by using test compounds of formula (I).
Preparing the plates: FLIPR-plates were pre-coated with PLL (Poly-L-Lysine) 10 μg/ml+0.1% gelatine to attach the HEK (Human Embryonic Kidney) cells for 30 min up to 2 days at 37° C. The cells were plated out into 96-well plates (60000 cells/well).
Labelling with fluo-4: […] fluo-4 (fluorescent marker) were dissolved in 20 μl pluronic acid (20% in DMSO). The dissolved fluo-4 was then diluted in 10 ml DMEM (Dubecco's Minimal Essential Medium-F12 medium without FCS (Fetal Calf Serum). The medium was removed from the plates, followed by one wash with DNEM-F12 medium. Now, 100 μl of the DMEM-F12 medium containing fluo-4 were added and the cells incubated for 1.5-2 h (HEK-cells). The cells now contain the fluorescent marker.
Buffer: 145 mM NaCl, 5 mM KCl, 1 mM MgCl2, 10 mM Hepes, 10 mM Glucose, EGTA (Ethylene-bis oxyethylene nitrilo tetraacetic acid). Adjust to pH 7.4.
Performance of the assay: A minimum of 80 μl/well of antagonists (5×) in the above buffer (1×) were prepared (96-well plates). The antagonists were added to the well-plates at different concentrations (30 μM, 10 μM, 1 μM, 300 nM, 100 nM, 10 nM, 1 nM, 100 pM, 10 pM).
OT is added at a concentration of 40 nM.
The fluorescent marker being sensitive to the amount of Ca^2+ mobilized within the cell may be quantified by the FLIPR machine.
The activities of the sulfanilide derivatives according to formula I were assessed using the above described in vitro biological assay. The values refer to the capacity of the example compounds according to formula I to effectively antagonize oxytocin-induced intracellular Ca^2+-mobilization mediated by the oxytocin receptor.

[2] = molecular target: T2, hOT receptor (Homo sapiens, UniProt P30559); assay: In vitro competition binding assay on hOT receptor with scintillating proximity assay; settings: membranes from HEK293EBNA cells expressing hOT receptor; radiolabel [125I]-OVTA; SPA; read-out: Binding Affinity Human OT-R Ki
T2 construct: expressed in transfected cells; host or cells: HEK293EBNA cells (membranes)
T2 sequence (P30559 1-389): T1 sequence (P30559 1-389)
Description: a) In Vitro Competition Binding Assay on hOT Receptor with Scintillating Proximity Assay (Pharmaceutical Manufacturing International, 1992, p. 49-53 by Cook, N. D. et al)
This assays allows to determine the affinity of the test compounds for the OT receptor. Membranes from HEK293EBNA cells expressing the hOT receptor were resuspended in buffer containing 50 mM Tris-HCl, pH 7.4, 5 mM MgCl2 and 0.1% BSA (w/v). The membranes (2-4 μg) were mixed with 0.1 mg wheat-germ aglutinin (WGA) SPA bead (type A) and 0.2 nM of the radiolabel [^125I]-OVTA (OVTA being […] and is an analogue of OT for competition binding experiments). Non-specific binding was determined in the presence of 1 μM Oxytocin. The total assay volume was 100 μl. The plates (Corning (D NBS plate) were incubated at room temperature for 30 min and counted on a Mibrobeta plate counter. The tests compounds were used in concentrations of 30 μM, 10 μM, 1 μM, 300 nM, 100 nM, 10 nM, 1 nM, 100 pM, 10 pM. The competition binding data were analysed using the iterative, nonlinear, curve-fitting program, “Prism”.
The binding affinities to the oxytocin receptor of the sulfanilide derivatives claimed in the formula I were assessed using the above described in vitro biological assay. The values refer to the binding affinity (IC50; μM) of the example compounds according to formula I to the Oxytocin receptor. From the values shown in Table 1 it can be derived that said test compounds according to formula I do show a significant binding to the oxytocin receptor.

[3] = system: oxytocin-induced uterine contractions in the rat; assay: In vivo model for inhibition of uterine contractions; settings: anaesthetised DES-treated non-pregnant female rat, route not given
Description: f) In Vivo Model for Inhibition of Uterine Contractions
The assay intends to show the biological effect of tested compounds in an in vivo model of preterm labor, premature birth.
Non-pregnant Charles River CD(SD) BR female rats (9-10 weeks old, 200-250 g) were treated at 18 and 24 hours before the experiment with 250 μg/kg, i.p. diethylstilbestrol (DES). For the assay, the animal was anaesthetised by urethane (1.75 g/kg, i.p.) and placed on an homeothennic operating table. The trachea was isolated and cannulated with a suitable polyethylene (PE) tubing. A midline incision at the hypogastrium level was made and one uterine horn exposed, its cephalic end cannulated with a PE240 tubing and, after filling the internal cavity with 0.2 ml of sterile physiological saline, connected to a “Gemini” amplifying/recording system via a P231D Gould Statham pressure transducer. For the i.v. route of administration of the test compounds, one jugular vein was isolated and cannulated with a PE60 tubing connected to a butterfly needle to allow the administration by a dispensing syringe. In the case of intraduodenal administration of the test compounds, the duodenum was isolated and similarly cannulated through a small incision in its wall. One carotid artery was also isolated and cannulated with PE60 catheter and connected to a suitable syringe for blood sample collection (see below). After a stabilization period, the same dose of oxytocin was repeatedly injected intravenously at 30-min intervals. […] Further injections of the same dose of oxytocin were then made for a suitable time after treatment to assess inhibitory effects of the compounds under study. The contractile response of the uterus to oxytocin was quantified by measuring the intra-uterine pressure and the number of contractions. The effect of the reference and test compounds were evaluated by comparing pre- and post-treatment pressure values. In addition, at 2, 30, 90 and 210 minutes after test compound administration, a 0.5-ml blood sample was withdrawn from the cannulated carotid artery of each experimental animal. Plasma was obtained by standard laboratory procedure and the resulting samples were stored at −20° C.
The activities of the sulfanilide derivatives claimed in the Formula I were assessed using the above described in vivo biological assay. The values refer to the capacity of the example compound according to Formula I to effectively antagonize oxytocin-induced uterine contractions in the rat.

| Compound | IC50 [1] | Ki [2] | also measured |
| --- | --- | --- | --- |
| COc1ccc(N(CC(=O)Nc2cccc(Cl)c2C)S(=O)(=O)c2ccccc2)cc1 [2-[Benzenesulfonyl-(4-methoxy-phenyl)-amino]-N-(3-chloro-2-methyl-phenyl)-acetamide] | 45 nM | – | – |
| COc1ccc(N(CC(=O)Nc2cccc(OC)c2)S(=O)(=O)c2ccccc2)cc1 [2-[Benzenesulfonyl-(4-methoxy-phenyl)-amino]-N-(3-methoxy-phenyl)-acetamide] | 392 nM | – | – |
| COc1ccc(N(CC(=O)Nc2cccc3ccccc23)S(=O)(=O)c2ccccc2)cc1 [2-[Benzenesulfonyl-(4-methoxy-phenyl)-amino]-N-naphthalen-1-yl-acetamide] | 363 nM | – | – |
| CCOc1ccc(S(=O)(=O)N(CC(=O)N/N=C2\C(=O)Nc3ccccc32)c2ccc(Cl)cc2)cc1 [Example 40, N-(4-chlorophenyl)-4-ethoxy-N-{2-oxo-2-[(2Z)-2-(2-oxo-1,2-dihydro-3H-indol-3-ylidene)hydrazino]ethyl}benzenesulfonamide] | 102 nM | 0.4 nM | – |
| O=C(CN(c1ccc(Cl)cc1)S(=O)(=O)c1ccc(OCCN2CCOCC2)cc1)NN=C1C(=O)Nc2ccccc21 [Example 55, N-(4-chlorophenyl)-4-[2-(4-morpholinyl)ethoxy]-N-{2-oxo-2-[2-(2-oxo-1,2-dihydro-3H-indol-3-ylidene)hydrazino]ethyl}benzenesulfonamide] | 7 nM | 0.8 nM | % Reduction of Uterine Contraction ([3]; dose 0.3 mg/kg): 4.3 ± 1.7%; % Reduction of Uterine Contraction ([3]; dose 1 mg/kg): 18.2 ± 3.7%; % Reduction of Uterine Contraction ([3]; dose 3 mg/kg): 39.8 ± 5.1%; % Reduction of Uterine Contraction ([3]; dose 10 mg/kg): 41.7 ± 12.5%; % Reduction of Uterine Contraction ([3]; dose 30 mg/kg): 71.3 ± 6.4% |
| COCCOCCOc1ccc(S(=O)(=O)N(CC(=O)N/N=C2\C(=O)Nc3ccccc32)c2ccc(Cl)cc2)cc1 [Example 61, N-(4-chlorophenyl)-4-[2-(2-methoxyethoxy)ethoxy]-N-{2-oxo-2-[(2Z)-2-(2-oxo-1,2-dihydro-3H-indol-3-ylidene)hydrazino]ethyl}benzenesulfonamide] | 6.9 nM | 2.9 nM | – |
| COCCOc1ccc(S(=O)(=O)N(CC(=O)N/N=C2\C(=O)Nc3ccccc32)c2ccc(Cl)cc2)cc1 [Example 62, N-(4-chlorophenyl)-4-(2-methoxyethoxy)-N-{2-oxo-2-[(2Z)-2-(2-oxo-1,2-dihydro-3H-indol-3-ylidene)hydrazino]ethyl}benzenesulfonamide] | 8 nM | – | – |
| O=C(CN(c1ccc(Cl)cc1)S(=O)(=O)c1ccc(OCCCc2cccnc2)cc1)N/N=C1\C(=O)Nc2ccccc21 [Example 63, N-(4-chlorophenyl)-N-{2-oxo-2-[(2Z)-2-(2-oxo-1,2-dihydro-3H-indol-3-ylidene)hydrazino]ethyl}-4-[3-(3-pyridinyl)propoxy]benzenesulfonamide] | 17 nM | 2.8 nM | – |
| O=C(CN(c1ccc(Cl)cc1)S(=O)(=O)c1ccc(NCCN2CCOCC2)cc1)N/N=C1\C(=O)Nc2ccccc21 [Example 65, N-(4-chlorophenyl)-4-{[2-(4-morpholinyl)ethyl]amino}-N-{2-oxo-2-[(2Z)-2-(2-oxo-1,2-dihydro-3H-indol-3-ylidene)hydrazino]ethyl}benzenesulfonamide] | 49 nM | 6.9 nM | – |
| Cc1ccc(N(CC(=O)N/N=C2\C(=O)Nc3ccccc32)S(=O)(=O)c2ccc(CCC(N)=O)cc2)cc1 [Example 66, 3-{4-[(4-methyl{2-oxo-2-[(2Z)-2-(2-oxo-1,2-dihydro-3H-indol-3-ylidene)hydrazino]ethyl}anilino)sulfonyl]phenyl}propanamide] | 19 nM | 3.4 nM | – |
| CN(C)CCCOc1ccc(S(=O)(=O)N(CC(=O)N/N=C2\C(=O)Nc3ccccc32)c2ccc(Cl)cc2)cc1 [Example 67, N-(4-chlorophenyl)-4-[3-(dimethylamino)propoxy]-N-{2-oxo-2-[(2Z)-2-(2-oxo-1,2-dihydro-3H-indol-3-ylidene)hydrazino]ethyl}benzenesulfonamide] | 13.6 nM | 0.6 nM | % Reduction of Uterine Contraction ([3]; dose 0.3 mg/kg): 9.3 ± 2.5%; % Reduction of Uterine Contraction ([3]; dose 1 mg/kg): 20.8 ± 2.2%; % Reduction of Uterine Contraction ([3]; dose 3 mg/kg): 34.4 ± 3.9%; % Reduction of Uterine Contraction ([3]; dose 10 mg/kg): 57.1 ± 4.8%; % Reduction of Uterine Contraction ([3]; dose 30 mg/kg): 67.4 ± 7.1% |
| COC(=O)c1cccc2c1NC(=O)/C2=N\NC(=O)CN(c1ccc(Cl)cc1)S(=O)(=O)c1ccc(OCCCN(C)C)cc1 [Example 70, Methyl (3Z)-3-({[4-chloro({4-[3-(dimethylamino)propoxy]phenyl}sulfonyl)anilino]acetyl}hydrazono)-2-oxo-2,3-dihydro-1H-indole-7-carboxylate] | 393 nM | 108 nM | – |
| CN(C)CCCNC(=O)CCc1ccc(S(=O)(=O)N(CC(=O)N/N=C2\C(=O)Nc3ccccc32)c2ccc(Cl)cc2)cc1 [Example 71, 3-{4-[(4-chloro{2-oxo-2-[(2Z)-2-(2-oxo-1,2-dihydro-3H-indol-3-ylidene)hydrazino]ethyl}anilino)sulfonyl]phenyll}-N-[3-(dimethylamino)propyl]propanamide] | 14 nM | 0.7 nM | – |
| Cc1ccc(N(CC(=O)NCc2ccc(Cl)cc2Cl)S(=O)(=O)c2ccc(C)cc2)cc1 [N-(2,4-Dichloro-benzyl)-2-[(toluene-4-sulfonyl)-p-tolyl-amino]-acetamide] | 595 nM | – | – |

From patent US7312358B2, “Pharmaceutically active sulfanilide derivatives” (Laboratoires Serono SA, priority 2000, dated 2007)
